Converted amounts (≈) assume the structure as drawn. Like-named read-outs stand apart in the source and are kept apart here.
Experiments:
[1] = target: Human KLK1 (Homo sapiens (Human), UniProt P06870); experiment: Determination of the IC50 for KLK1; type: biochemical; details: 25° C., substrate H-DVal-Leu-Arg-AFC
Method: Human KLK1 (Callbiochem) was incubated at 25° C. with the fluorogenic substrate H-DVal-Leu-Arg-AFC and various concentrations of the test compound. Residual enzyme activity (initial rate of reaction) was determined by measuring the change in […] at 410 nm and the IC50 value for the test compound was determined.

[2] = Solubility in water and 0.1N HCl (aq); type: physicochemical; details: thermodynamic from solid, incubated at 1 mg/mL, 37° C.
Method: Solubility was determined in water and 0.1N HCl (aq). Test compounds were incubated at 1 mg/mL for 24 hrs at 37° C. on a shaking platform (500 rpm). Samples were taken at 1, 4 and 24 hrs and centrifuged at 15,000 g for 10 min. Test compound concentration in the supernatant was determined by LCMS against a standard curve.

[3] = Plasma protein binding (PPB), rapid equilibrium dialysis, rat plasma; type: in vitro ADME; details: 5 μM test compound, dialysis 5 hrs at 37° C.
[4] = simulated gastric fluid, 0.1N HCl (aq), read-out: Solubility 0.1N HCl (aq)
[5] = water, read-out: Solubility Water

Sequence of Human KLK1 (P06870 25-262): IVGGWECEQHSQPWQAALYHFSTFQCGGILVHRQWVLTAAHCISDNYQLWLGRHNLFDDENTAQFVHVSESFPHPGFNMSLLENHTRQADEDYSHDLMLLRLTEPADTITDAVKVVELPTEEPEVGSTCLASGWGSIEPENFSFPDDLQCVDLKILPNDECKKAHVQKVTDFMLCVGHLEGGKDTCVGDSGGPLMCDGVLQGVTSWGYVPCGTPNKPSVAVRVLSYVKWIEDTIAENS

| SMILES | IC50 [1] | solubility [2, 4] | solubility [2, 5] | fraction unbound at 5 h, 5 μM [3] |
| --- | --- | --- | --- | --- |
| COCc1nn(Cc2ccc(Cn3ccccc3=O)cc2)cc1C(=O)NCc1c(-n2cnnn2)ccc(OC)c1F [Example 39, N-{[2-Fluoro-3-methoxy-6-(1,2,3,4-tetrazol-1-yl)phenyl]methyl}-3-(methoxymethyl)-1-({4-[(2-oxopyridin-1-yl)methyl]phenyl}methyl)pyrazole-4-carboxamide] | > 4 µM | 19 µg/mL (≈ 34 µM) | 7 µg/mL (≈ 12.5 µM) | 0.11 |
| COCc1nn(Cc2cnc(N3CCCC3)nc2)cc1C(=O)NCc1c(-n2cnnn2)ccc(OC)c1F [Example 79, N-{[2-Fluoro-3-methoxy-6-(1,2,3,4-tetrazol-1-yl)phenyl]methyl}-3-(methoxymethyl)-1-{[2-(pyrrolidin-1-yl)pyrimidin-5-yl]methyl}pyrazole-4-carboxamide] | > 40 µM | 924 µg/mL (≈ 1770 µM) | 93 µg/mL (≈ 178 µM) | 0.05 |

Reference: patent US11180484B2, “Pyrazole derivatives as plasma kallikrein inhibitors” (KALVISTA PHARMACEUTICALS LIMITED, priority 2016, dated 2021)
